From the NIST ThermoML archive (doi:10.1021/je900542y)
“And” between values parts separate entries of the source, which are not always exact repeats. Identical values can stand only once. Numbers after ± are expanded uncertainties.

What was measured:
[1] = 298.15 K; 101 kPa; Liquid
[2] = mn = molality of the nth substance listed, in mol/kg; conditions: 298.15 K, 101 kPa, Liquid

With `CC(C)=O` [acetone] the mass density [1] was 783.81 ± 0.5 kg/m3.

In the case of `CC(C)=O` [acetone] + CC[N+](CC)(CC)CC.[I-], the mass density ([2]; m2 = 0) is reported as 783.81 ± 0.5 kg/m3.

For `CC#N` [acetonitrile], the mass density [1] was 776.01 ± 0.6 kg/m3 and 776.02 ± 0.59 kg/m3.

Molecule `CC#N` [acetonitrile] + CC[N+](CC)(CC)CC.[I-] has a mass density ([2]; m2 = 0) of 776.01 ± 0.6 kg/m3.

`CO` [methanol] showed a mass density [1] of 786.38 ± 0.49 kg/m3.

With `CO` [methanol] + CC[N+](CC)(CC)CC.[I-] the mass density ([2]; m2 = 0) was 786.38 ± 0.49 kg/m3.

`O=[N+]([O-])c1ccccc1` [nitrobenzene] showed a mass density [1] of 1198.91 ± 0.72 kg/m3.

Molecule `O=[N+]([O-])c1ccccc1` [nitrobenzene] + CC[N+](CC)(CC)CC.[I-] has a mass density ([2]; m2 = 0) of 1198.91 ± 0.72 kg/m3.

For `CC[N+](CC)(CC)CC.[I-]` [tetraethylammonium iodide] + CC#N, the mass density ([2]; m1 = 0.0001) was 776.01 ± 0.6 kg/m3, the mass density ([2]; m1 = 0.0002) was 776.02 ± 0.59 kg/m3 and the mass density ([2]; m1 = 0.00354) was 776.16 ± 0.59 kg/m3. It also gave a mass density ([2]; m1 = 0.003541) of 776.16 ± 0.59 kg/m3, a mass density ([2]; m1 = 0.007081) of 776.32 ± 0.59 kg/m3 and a mass density ([2]; m1 = 0.007082) of 776.32 ± 0.59 kg/m3. For the same molecule, the mass density ([2]; m1 = 0.01062) was 776.47 ± 0.59 kg/m3, the mass density ([2]; m1 = 0.01064) was 776.46 ± 0.59 kg/m3 and the mass density ([2]; m1 = 0.01416) was 776.63 ± 0.59 kg/m3. For the same molecule, the mass density ([2]; m1 = 0.01417) was 776.61 ± 0.59 kg/m3, the mass density ([2]; m1 = 0.0176) was 776.77 ± 0.59 kg/m3 and 776.78 ± 0.59 kg/m3 and the mass density ([2]; m1 = 0.02124) was 776.93 ± 0.59 kg/m3. It also gave a mass density ([2]; m1 = 0.02832) of 777.24 ± 0.59 kg/m3.

In the case of `CC[N+](CC)(CC)CC.[I-]` [tetraethylammonium iodide] + CC(C)=O, the mass density ([2]; m1 = 0.0001) is reported as 783.81 ± 0.5 kg/m3, the mass density ([2]; m1 = 0.0002) is reported as 783.81 ± 0.5 kg/m3 and the mass density ([2]; m1 = 0.00536) is reported as 784.1 ± 0.5 kg/m3. For the same molecule, the mass density ([2]; m1 = 0.005361) was 784.11 ± 0.5 kg/m3, the mass density ([2]; m1 = 0.007105) was 784.2 ± 0.49 kg/m3 and the mass density ([2]; m1 = 0.007106) was 784.21 ± 0.49 kg/m3. For the same molecule, the mass density ([2]; m1 = 0.007107) was 784.2 ± 0.49 kg/m3, the mass density ([2]; m1 = 0.008909) was 784.3 ± 0.5 kg/m3 and the mass density ([2]; m1 = 0.00891) was 784.3 ± 0.5 kg/m3. It also gave a mass density ([2]; m1 = 0.01242) of 784.5 ± 0.49 kg/m3, a mass density ([2]; m1 = 0.0142) of 784.6 ± 0.49 kg/m3 and a mass density ([2]; m1 = 0.0177) of 784.81 ± 0.49 kg/m3. For the same molecule, the mass density ([2]; m1 = 0.01771) was 784.81 ± 0.49 kg/m3, the mass density ([2]; m1 = 0.02114) was 784.99 ± 0.49 kg/m3 and the mass density ([2]; m1 = 0.02115) was 785 ± 0.49 kg/m3.

Molecule `CC[N+](CC)(CC)CC.[I-]` [tetraethylammonium iodide] + CO has a mass density ([2]; m1 = 0.0001) of 786.38 ± 0.49 kg/m3, a mass density ([2]; m1 = 0.0002) of 786.38 ± 0.49 kg/m3 and a mass density ([2]; m1 = 0.00354) of 786.54 ± 0.49 kg/m3. It also gave a mass density ([2]; m1 = 0.003541) of 786.54 ± 0.49 kg/m3, a mass density ([2]; m1 = 0.003542) of 786.54 ± 0.49 kg/m3 and a mass density ([2]; m1 = 0.007079) of 786.69 ± 0.49 kg/m3. For the same molecule, the mass density ([2]; m1 = 0.00708) was 786.69 ± 0.49 kg/m3, the mass density ([2]; m1 = 0.007081) was 786.69 ± 0.49 kg/m3 and the mass density ([2]; m1 = 0.01062) was 786.85 ± 0.49 kg/m3. For the same molecule, the mass density ([2]; m1 = 0.01063) was 786.85 ± 0.49 kg/m3, the mass density ([2]; m1 = 0.01416) was 787 ± 0.49 kg/m3 and the mass density ([2]; m1 = 0.01417) was 787 ± 0.49 kg/m3. For the same molecule, the mass density ([2]; m1 = 0.0176) was 787.17 ± 0.49 kg/m3 and 787.18 ± 0.49 kg/m3, the mass density ([2]; m1 = 0.02124) was 787.31 ± 0.49 kg/m3 and the mass density ([2]; m1 = 0.02832) was 787.63 ± 0.49 kg/m3 and 787.62 ± 0.49 kg/m3.

`CC[N+](CC)(CC)CC.[I-]` [tetraethylammonium iodide] + O=[N+]([O-])c1ccccc1 showed a mass density ([2]; m1 = 0.0001) of 1198.91 ± 0.72 kg/m3, a mass density ([2]; m1 = 0.0002) of 1198.91 ± 0.72 kg/m3 and a mass density ([2]; m1 = 0.003538) of 1198.97 ± 0.72 kg/m3. The mass density ([2]; m1 = 0.007075) was 1199.04 ± 0.72 kg/m3, the mass density ([2]; m1 = 0.0106) was 1199.1 ± 0.72 kg/m3 and the mass density ([2]; m1 = 0.01415) was 1199.17 ± 0.72 kg/m3. The mass density ([2]; m1 = 0.01416) was 1199.17 ± 0.72 kg/m3, the mass density ([2]; m1 = 0.0177) was 1199.23 ± 0.72 kg/m3 and the mass density ([2]; m1 = 0.02119) was 1199.29 ± 0.72 kg/m3. For the same molecule, the mass density ([2]; m1 = 0.02469) was 1199.36 ± 0.72 kg/m3 and 1199.35 ± 0.72 kg/m3.
